Assay [1] concerns the target T1, Jarid1B (Homo sapiens, UniProt Q9UGL1).
T1 construct: purchased BPS Bioscience or custom made by MolecularThroughput 50121
T1 sequence (Q9UGL1 2-751): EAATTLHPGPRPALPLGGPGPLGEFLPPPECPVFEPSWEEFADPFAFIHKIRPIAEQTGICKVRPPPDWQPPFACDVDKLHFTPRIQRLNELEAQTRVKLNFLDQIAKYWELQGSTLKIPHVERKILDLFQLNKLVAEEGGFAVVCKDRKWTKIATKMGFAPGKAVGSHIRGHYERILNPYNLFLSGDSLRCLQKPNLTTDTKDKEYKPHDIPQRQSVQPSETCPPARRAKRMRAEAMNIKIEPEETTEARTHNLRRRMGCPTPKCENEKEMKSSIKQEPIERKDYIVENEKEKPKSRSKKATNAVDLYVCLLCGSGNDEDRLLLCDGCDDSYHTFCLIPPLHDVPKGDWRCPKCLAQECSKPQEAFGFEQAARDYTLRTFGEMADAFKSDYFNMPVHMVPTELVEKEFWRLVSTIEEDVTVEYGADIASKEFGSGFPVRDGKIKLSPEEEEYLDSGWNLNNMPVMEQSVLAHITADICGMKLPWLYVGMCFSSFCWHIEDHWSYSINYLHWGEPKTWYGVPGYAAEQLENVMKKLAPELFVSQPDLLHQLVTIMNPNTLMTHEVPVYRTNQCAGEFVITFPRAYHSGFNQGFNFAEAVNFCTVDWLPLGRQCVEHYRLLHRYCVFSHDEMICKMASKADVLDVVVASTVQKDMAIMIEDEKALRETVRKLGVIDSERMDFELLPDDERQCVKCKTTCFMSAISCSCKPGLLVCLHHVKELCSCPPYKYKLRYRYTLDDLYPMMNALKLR
As to the kind of experiment: Jarid1B in vitro enzyme inhibition assay (TR-FRET). Type of assay: biochemical. In outline:
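Jarid1B (AA 2-751, baculovirus-expressed) at 0.8 nM with 300 nM biotin-H3K4me3 peptide and 2 μM α-ketoglutarate in HEPES pH 7.3 with ascorbate and Fe(II), 30 min at room temperature. Stopped with EDTA; H3K4me1-2 product detected by TR-FRET (665/615 ratio) and IC50 fitted from 11-point dilutions.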
(In general: In TR-FRET formats the signal depends on donor and acceptor labels being close together.)

For assay [2], the system named is KDM5A/B. As to the kind of experiment: In vitro cell-based assay: immuno-blot quantification of tri-methyl H3K4 in ZR-75-1 breast cancer cells. Particulars: 72 hours, tri-methyl H3K4 level relative to GAPDH, percent of DMSO, read-out: Cellular IC50. The procedure, abridged: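 ZR-75-1 breast cancer cells treated 72 h with 11-point compound dilutions (1250 μM to 10 nM). H3K4me3 quantified by infrared immunoblot densitometry, normalized to GAPDH and expressed as percent of DMSO control; relative IC50 from curve fit.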

These results are taken from US10526327B2, “Histone demethylase inhibitors” (CELGENE QUANTICEL RESEARCH, INC., priority 2013, dated 2020).

For orientation: IC50 means the point on the concentration scale where inhibition reaches its midpoint. For `Oc1nc(OCCCC(F)(F)F)nc2cnccc12` [Example 20, 2-(4,4,4-trifluorobutoxy)pyrido[3,4-d]pyrimidin-4-ol], the concentration for half-maximal inhibition (IC50) was ≤ 0.1 µM in assay [1] and > 10 µM in assay [2].

Take `Cn1cnc(-c2nccc3c(O)nc(Oc4ccc(Cl)c(Cl)c4)nc23)c1` [Example 113, 2-(3,4-dichlorophenoxy)-8-(1-methyl-1H-imidazol-4-yl)pyrido[3,4-d]pyrimidin-4-ol]: the IC50 was ≤ 0.1 µM in assay [1] and 0.1 to 1 µM in assay [2].

For `CCC(c1ccccc1)n1cc(Oc2nc(O)c3ccncc3n2)cn1` (stereo not drawn) [Example 115, 2-{[1-(1-phenylpropyl)-1H-pyrazol-4-yl]oxy}pyrido[3,4-d]pyrimidin-4-ol], the IC50 in assay [1] is ≤ 0.1 µM; in assay [2], 1 to 10 µM.

With `C[C@H](c1ccccc1)n1cc(Oc2nc(O)c3ccncc3n2)cn1` [Example 117, 2-({1-[(1R)-1-phenylethyl]-1H-pyrazol-4-yl}oxy)pyrido[3,4-d]pyrimidin-4-ol], the IC50 in assay [1] was ≤ 0.1 µM; in assay [2], 1 to 10 µM.

For the compound `C[C@@H](c1ccccc1)n1cc(Oc2nc(O)c3ccncc3n2)cn1` [Example 118, 2-({1-[(1S)-1-phenylethyl]-1H-pyrazol-4-yl}oxypyrido) [3,4-d]pyrimidin-4-ol], the IC50 in assay [1] was ≤ 0.1 µM; in assay [2], 0.1 to 1 µM.

Turning to `C[C@H](c1ccccc1F)n1cc(Oc2nc(O)c3ccncc3n2)cn1` [Example 119, 2-({1-[(1R)-1-(2-fluorophenyl)ethyl]-1H-pyrazol-4-yl}oxy)pyrido[3,4-d]pyrimidin-4-ol], the IC50 was ≤ 0.1 µM in assay [1] and 0.1 to 1 µM in assay [2].

For the compound `C[C@@H](c1ccccc1F)n1cc(Oc2nc(O)c3ccncc3n2)cn1` [Example 120, 2-({1-[(1s)-1-(2-fluorophenyl)ethyl]-1H-pyrazol-4-yl}oxy)pyrido[3,4-d]pyrimidin-4-ol], the IC50 is ≤ 0.1 µM in assay [1] and 1 to 10 µM in assay [2].

Regarding `Oc1nc(Oc2cnn(Cc3ccccc3Cl)c2)nc2cnccc12` [Example 121, 2-({1-[(2-chlorophenyl)methyl]-1H-pyrazol-4-yl}oxy)pyrido[3,4-d]pyrimidin-4-ol], the IC50 in assay [1] is ≤ 0.1 µM; in assay [2] it was 1 to 10 µM.

As for `Oc1nc(Oc2cnn(Cc3cccc(Cl)c3)c2)nc2cnccc12` [Example 122, 2-({1-[(3-chlorophenyl)methyl]-1H-pyrazol-4-yl}oxy)pyrido[3,4-d]pyrimidin-4-ol], the IC50 in assay [1] is ≤ 0.1 µM; in assay [2] it was 1 to 10 µM.

Regarding `Oc1nc(Oc2cnn(CCN3CCOCC3)c2)nc2cnccc12` [Example 124, 2-({1-[2-(morpholin-4-yl)ethyl]-1H-pyrazol-4-yl}oxy)pyrido[3,4-d]pyrimidin-4-ol], the values for the IC50 in assay [1] and in assay [2] were ≤ 0.1 µM and 0.1 to 1 µM, respectively.

As to `Oc1nc(Oc2cnn([C@@H]3CCNC3)c2)nc2cnccc12` [Example 125, 2-({1-[(3R)-pyrrolidin-3-yl]-1H-pyrazol-4-yl}oxy)pyrido[3,4-d]pyrimidin-4-ol], the IC50 was ≤ 0.1 µM in assay [1] and > 10 µM in assay [2].

As for `CCS(=O)(=O)N1CC[C@@H](n2cc(Oc3nc(O)c4ccncc4n3)cn2)C1` [Example 126, 2-({1-[(3R)-1-(ethanesulfonyl)pyrrolidin-3-yl]-1H-pyrazol-4-yl}oxy)pyrido[3,4-d]pyrimidin-4-ol], the 50% inhibitory concentration (IC50) was ≤ 0.1 µM in assay [1] and > 10 µM in assay [2].

Turning to `O=S(=O)(C1CC1)N1CC[C@@H](n2cc(Oc3nc(O)c4ccncc4n3)cn2)C1` [Example 127, 2-({1-[(3R)-1-(cyclopropanesulfonyl)pyrrolidin-3-yl]-1H-pyrazol-4-yl}oxy)pyrido[3,4-d]pyrimidin-4-ol], the IC50 in assay [1] was ≤ 0.1 µM; in assay [2] it was 1 to 10 µM.

For the compound `O=S(=O)(c1ccccc1)N1CC[C@@H](n2cc(Oc3nc(O)c4ccncc4n3)cn2)C1` [Example 128, 2-({1-[(3R)-1-(benzenesulfonyl)pyrrolidin-3-yl]-1H-pyrazol-4-yl}oxy)pyrido[3,4-d]pyrimidin-4-ol], the IC50 in assay [1] is ≤ 0.1 µM; in assay [2], 1 to 10 µM.

As to `CC(=O)N1CC[C@@H](n2cc(Oc3nc(O)c4ccncc4n3)cn2)C1` [Example 129, 1-[(3R)-3-[4-({4-hydroxypyrido[3,4-d]pyrimidin-2-yl}oxy)-1H-pyrazol-1-yl]pyrrolidin-1-yl]ethan-1-one], the IC50 in assay [1] was ≤ 0.1 µM; in assay [2], > 10 µM.

Regarding `N#CCC(=O)N1CC[C@@H](n2cc(Oc3nc(O)c4ccncc4n3)cn2)C1` [Example 130, 3-[(3R)-3-[4-({4-hydroxypyrido[3,4-d]pyrimidin-2-yl}oxy)-1H-pyrazol-1-yl]pyrrolidin-1-yl]-3-oxopropanenitrile], the figures for the IC50 in assay [1] and in assay [2] were ≤ 0.1 µM and > 10 µM, respectively.

For `O=C(C1CC1)N1CC[C@@H](n2cc(Oc3nc(O)c4ccncc4n3)cn2)C1` [Example 131, 2-({1-[(3R)-1-cyclopropanecarbonylpyrrolidin-3-yl]-1H-pyrazol-4-yl}oxy)pyrido[3,4-d]pyrimidin-4-ol], the IC50 was ≤ 0.1 µM in assay [1] and 1 to 10 µM in assay [2].

Consider `O=C(c1ccccc1)N1CC[C@@H](n2cc(Oc3nc(O)c4ccncc4n3)cn2)C1` [Example 132, 2-({1-[(3R)-1-benzoylpyrrolidin-3-yl]-1H-pyrazol-4-yl}oxy)pyrido[3,4-d]pyrimidin-4-ol], for which the IC50 in assay [1] is ≤ 0.1 µM; in assay [2], 1 to 10 µM.

As to `Oc1nc(Oc2cnn([C@@H]3CCN(Cc4ccccc4)C3)c2)nc2cnccc12` [Example 133, 2-({1-[(3R)-1-benzylpyrrolidin-3-yl]-1H-pyrazol-4-yl}oxy)pyrido[3,4-d]pyrimidin-4-ol], the values for the IC50 in assay [1] and in assay [2] were ≤ 0.1 µM and 1 to 10 µM, respectively.

Take `Oc1nc(Oc2cnn([C@@H]3CCN(c4ccc(F)cc4)C3)c2)nc2cnccc12` [Example 134, 2-({1-[(3R)-1-(4-fluorophenyl)pyrrolidin-3-yl]-1H-pyrazol-4-yl}oxy)pyrido[3,4-d]pyrimidin-4-ol]: the values for the IC50 in assay [1] and in assay [2] were ≤ 0.1 µM and 0.1 to 1 µM, respectively.

`Oc1nc(Oc2cnn([C@H]3CCNC3)c2)nc2cnccc12` [Example 135, 2-({1-[(3S)-pyrrolidin-3-yl]-1H-pyrazol-4-yl}oxy)pyrido[3,4-d]pyrimidin-4-ol]: the IC50 is ≤ 0.1 µM in assay [1] and > 10 µM in assay [2].

Regarding `CCS(=O)(=O)N1CC[C@H](n2cc(Oc3nc(O)c4ccncc4n3)cn2)C1` [Example 136, 2-({1-[(3S)-1-(ethanesulfonyl)pyrrolidin-3-yl]-1H-pyrazol-4-yl}oxy)pyrido[3,4-d]pyrimidin-4-ol], the IC50 in assay [1] was ≤ 0.1 µM; in assay [2] it was 0.1 to 1 µM.

Regarding `O=S(=O)(C1CC1)N1CC[C@H](n2cc(Oc3nc(O)c4ccncc4n3)cn2)C1` [Example 137, 2-({1-[(3S)-1-(cyclopropanesulfonyl)pyrrolidin-3-yl]-1H-pyrazol-4-yl}oxy)pyrido[3,4-d]pyrimidin-4-ol], the IC50 in assay [1] is ≤ 0.1 µM; in assay [2], 0.1 to 1 µM.

With `O=S(=O)(c1ccccc1)N1CC[C@H](n2cc(Oc3nc(O)c4ccncc4n3)cn2)C1` [Example 138, 2-({1-[(3S)-1-(benzenesulfonyl)pyrrolidin-3-yl]-1H-pyrazol-4-yl}oxy)pyrido[3,4-d]pyrimidin-4-ol], the IC50 is ≤ 0.1 µM in assay [1] and 1 to 10 µM in assay [2].
